Data from US20230226228A1, “POSITRON IMAGING TOMOGRAPHY IMAGING AGENT COMPOSITION AND METHOD FOR DETECTION OF BACTERIAL INFECTION” (priority 2020, published 2023).

Experiments:
[1] = system: S. aureus NfsB; format: biochemical; conditions: NADH 40 μM, substrate varied, Michaelis-Menten fit
Experimental: F-ENB, F-NB and F-NAP by NfsB was performed in 50 mM Tris-HCl buffer (pH 7.4) containing 5 mM EDTA, and 40 μM NADH in a total reaction volume of 500 μL. The reaction was initiated by adding enzyme (22 nM) and the consumption of NADH was monitored at 340 nm. […] Initial velocities as a function of substrate concentration were fitted to the Michaelis-Menten equation using GraphPad Prism 4. Each experiment was performed in triplicate and all the data points were included when the data were fit by the Michaelis-Menten equation.
The nitroreductase assay was performed at room temperature in 50 mM Tris-HCl buffer, pH 7.4, containing 5 mM EDTA in a total reaction volume of 500 μL. Reactions were initiated by the addition of NfsB to a final concentration of 45 nM, and the consumption of NADH was continuously monitored at 340 nm. […] The experiments were performed in triplicate and the initial velocities as a function of substrate concentration were globally fit to the Michaelis-Menten equation using GraphPad Prism 4.

[2] = system: S. aureus Xen29; assay: Rescue of sulfamethoxazole antibacterial effect (MIC, microbroth dilution in M9 media); format: cell-based
Experimental: FIG. 13. Impact of PABA analogues on the antibacterial activity of sulfamethoxazole (SMX).
Antibacterial susceptibility tests for aerobically growing bacteria were performed with a modified microbroth dilution assay according to the Clinical and Laboratory Standard Institute in transparent 96-well plates (CLSI. 2006). S. aureus Xen29 (PerkinElmer) were utilized in this study. Briefly, bacteria were grown to mid log phase (OD600 of 0.6-0.7) in cation-adjusted Mueller-Hinton (CAMH) media at 37° C. in an orbital shaker. Subsequently, bacteria were resuspended in the M9 media. A final concentration of 10^6 CFU/mL per well was added to M9 media (1% glucose, 1% casamino acids, 1 mM thiamine, 0.05 mM nicotinamide, 2 mM MgCl2, 0.1 mM CaCl2) containing 2-fold dilutions of SMX to give final concentrations ranging from 0.05 to 100 μg/mL either alone or in the presence of PABA (0.8 μg/mL and 4 μg/mL), F-PABA (0.8 μg/mL and 4 μg/mL), F-NB (10 μg/mL, 20 μg/mL and 40 μg/mL), or F-NAP (10 μg/mL, 20 μg/mL and 40 μg/mL). The plate was examined for bacteria growth using a UV-vis plate reader after 24 h incubation at 37° C. The MIC was recorded as the lowest SMX concentration (μM) required to inhibit at least 90% of bacterial growth as judged by the absorbance of the culture media.

[3] = system: S. aureus Xen29; assay: PET/CT imaging of rat triceps infection / sterile inflammation model (S. aureus Xen29); format: in vivo, Sprague-Dawley rats
Experimental: FIG. 5. PET/CT imaging of rats infected in the right triceps with the bioluminescent Xen29 strain of S. aureus. (A) Experimental design. (B) 2-[^18F]F-ENB-derived radioactivity accumulates in the infected triceps (red arrow) but not the inflamed triceps (yellow arrow) at 3 h post tracer administration.
FIG. 8. PET/CT imaging of 2-[^18F]F-NB in a rat model of S. aureus Xen29 infection. (A) Radiosynthesis of 2-[^18F]F-NB. (i) [^18F]potassium fluoride, Kryptofix222, potassium carbonate, dimethyl sulfoxide, r.t., 10 min; (ii) 2 M potassium hydroxide in H2O, 105° C., 10 min; Overall decay-corrected radiochemical yield: 26% (n=1).
FIG. 10. Time activity curve (TAC) in infected triceps, inflamed triceps and blood and biodistribution of 2-[^18F]F-NB in major organs. (a) The right triceps of the rats were infected with S. aureus Xen 29 and the left triceps were injected with a 10-fold higher burden of heat-killed S. aureus to induce sterile inflammation. The rats were scanned by PET/CT for 120 min (rats with sterile inflammation in the left triceps) immediately starting from tracer administration. The PET scan was separated into ten frames (1-min) and twenty-two frames (5-min). TACs of infected triceps (blue), inflamed triceps (grey) and blood (left heart ventricle, red) are shown. Data represented as mean with standard error of the mean (n=4). (b) Time-dependent accumulation of 2-[^18F]F-NB in infected and inflamed triceps compared to the blood (left heart ventricle). Data are presented as the mean and standard error of the mean (n=4). […]
(§1) S. aureus (Newman or Xen29) was cultured overnight by inoculating 5 μL of bacteria from a glycerol stock into 10 mL of fresh cation-adjusted Mueller-Hinton (CAMH) broth or tryptic soy broth (TSB). […] After imaging, the infected triceps were collected, homogenized in PBS using a hand-held homogenizer, and the bacterial burden at the time of imaging was determined by plating the muscle tissues onto solid MH medium. After overnight incubation at 37° C., CFUs were quantified by enumeration. […]

[4] = system: S. aureus Newman; assay: In vitro cellular uptake of radiotracer; format: cell-based; conditions: 1 μCi/mL, 120 min incubation, versus heat killed bacteria
Experimental: (§2) FIG. 12. In vitro 2-[^18F]F-NB uptake by S. aureus Newman and Xen29. 1 μCi of 2-[^18F]F-NB was incubated in a 1 mL culture of S. aureus Newman (green bars) or S. aureus Xen29 (blue bars) for 5, 30, 60, 90 and 120 min.
(§3) S. aureus Newman and S. aureus Xen29 were aerobically grown to OD600 0.6 in LB media at 37° C. To evaluate the uptake of 2-[^18F]F-NB, the bacteria were incubated with 1 μCi/mL of the radiotracer at 37° C. with rapid agitation. Heat-killed (90° C. for 30 min) bacteria were similarly incubated with 2-[^18F]FNB. Aliquots (1 mL) were removed after 5, 30, 60, 90, and 120 min and pelleted by centrifugation (11 000 rpm, 3 min) and washed three times with cold phosphate buffered saline (PBS). Total radioactivity was measured using an automated gamma counter and is reported as the percentage of radioactivity added to the culture. A minimum of five replicates were used for each assay and time point.

[5] = system: S. aureus Xen29; assay: In vitro cellular uptake of radiotracer; format: cell-based; conditions: 1 μCi/mL, 120 min incubation, versus heat killed bacteria
Experimental: as §2, §3

[6] = target: DHPS (Staphylococcus aureus, UniProt O05701); assay: HPPK-DHPS-DHFR coupled assay; format: biochemical; conditions: concentration of 80 μM
[7] = system: bacterial cells; assay: MIC / toxicity of F-PABA; format: cell-based
[8] = system: S. aureus Newman; assay: PET/CT imaging of rat triceps infection / sterile inflammation model (S. aureus Newman); format: in vivo, Sprague-Dawley rats; conditions: 60-80 min after tracer injection
Experimental: FIG. 3. PET/CT imaging of a rat model of S. aureus Newman-induced triceps infection. (A) [^18F]FDG PET/CT of a rat in which 8.2±0.2 log10 CFU of S. aureus Newman has been injected into the right triceps (red arrow) and with sterile inflammation in the left triceps (yellow arrow). The image was acquired 60-80 min after tracer injection. (B) Comparison of [18F]FDG accumulation 60-80 min postinjection at sites of infection and sterile inflammation, represented as % injected dose per cc (% ID/cc). […] (D) Comparison of 2-[^18F]F-ENB accumulation in the infected triceps and inflamed triceps 180-200 min after tracer injection: ***P<0.001 from a two-tailed Mann-Whitney U Test (n=7). (E) Ex vivo PET imaging of the excised infected triceps. The area of infection is highlighted in yellow. […]
as §1

Sequence of DHPS (O05701 whole entry): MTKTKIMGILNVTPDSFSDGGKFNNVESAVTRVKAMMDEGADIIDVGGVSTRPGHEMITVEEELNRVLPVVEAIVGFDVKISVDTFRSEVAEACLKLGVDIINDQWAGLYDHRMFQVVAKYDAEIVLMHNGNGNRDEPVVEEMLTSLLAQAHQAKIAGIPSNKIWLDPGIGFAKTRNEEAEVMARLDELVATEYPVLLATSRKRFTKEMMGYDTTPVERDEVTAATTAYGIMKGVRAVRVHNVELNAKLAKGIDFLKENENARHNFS

With `CCOC(=O)c1ccc([N+](=O)[O-])cc1F` [2-F-ENB, Ethyl 2-fluoro-4-nitrobenzoate] the kcat [1] was 16.1 ± 1.7 s⁻¹.
`CC(=O)c1ccc([N+](=O)[O-])cc1F` [2-F-NAP, 2-fluoro-4-nitroacetophenone] was tested, and the “rescue of growth in the presence of sulfamethoxazole” value (from here on “rescue of growth”) [2] was “unable to rescue growth”.
For `O=C(O)c1ccc([N+](=O)[O-])cc1F` [2-F-NB, 2-fluoro-p-nitrobenzoate], the kcat [1] was 12.4 ± 1.6 s⁻¹, the “rescue of growth” value [2] was “antagonized the activity of sulfamethoxazole” and the “MIC of sulfamethoxazole in the presence of 40 μg/mL 2-F-NB” value ([2]; 40 μg/mL 2-F-NB) was 12.5 µg/mL.
In the case of `O=C(O)c1ccc([N+](=O)[O-])cc1[18F]` [2-[^18F]F-NB, 2-[^18F]F-4-nitrobenzoate], the “signal at the infection site versus site of sterile inflammation” value ([3]; 3 h post injection, ROI analysis) is reported as 17 fold, the “localisation of radioactive signal” value ([3]; 180 min post tracer injection) is reported as “localized at the site of infection” and the “uptake of radiotracer by live bacteria” value [4] is reported as “Time dependent uptake”. For the same molecule, the “uptake of radiotracer by live bacteria” value [5] was “Time dependent uptake”.
With `CC(=O)c1ccc(N)cc1F` [2-fluoro-4-aminoacetophenone, 2-Fluoro-4-aminoacetophenone] the “substrate for DHPS” value [6] was “not an efficient substrate for DHPS”.
`Nc1ccc(C(=O)O)c(F)c1` [F-PABA, 2-fluoro-4-aminobenzoic acid] was tested, and the MIC [7] was over 100 µg/mL, the “toxicity to bacterial or mammalian cells” value [7] was “not toxic to either bacterial or mammalian cells” and the “rescue of growth” value [2] was “rescued bacterial growth in a concentration-dependent manner”. For the same molecule, the “MIC of sulfamethoxazole in the presence of 0.8 μg/mL F-PABA” value ([2]; 0.8 μg/mL F-PABA) was 12.5 µg/mL, the “increase of sulfamethoxazole MIC by 0.8 μg/mL F-PABA” value ([2]; 0.8 μg/mL F-PABA) was 8 fold and the “MIC of sulfamethoxazole in the presence of 4 μg/mL F-PABA” value ([2]; 4 μg/mL F-PABA) was “over 100 μg/mL”.
For `Nc1ccc(C(=O)O)cc1` [PABA, p-aminobenzoic acid], the “rescue of growth” value [2] was “bacterial regrowth in the presence of sulfamethoxazole occurred”.
In the case of `O=C[C@H]([18F])[C@@H](O)[C@H](O)[C@H](O)CO` [[^18F]FDG, 2-Deoxy-2-[18F]fluoro-D-glucose], the “radioactivity in the infected triceps” value [8] is reported as 0.8 % ID/cc and the “radioactivity in the inflamed triceps” value ([8]; sterile inflammation) is reported as 1.2 % ID/cc.
`Cc1cc(NS(=O)(=O)c2ccc(N)cc2)no1` [sulfamethoxazole] gave an MIC ([2]; Staphylococcus aureus, XEN29, 24 h, M9 media, read-out: MIC of sulfamethoxazole alone) of 1.56 µg/mL.
